Laboratory results as given in the supplement of paper PMC10307832.

Experiments:
Experiment in all cases: relative viability (nuclei count vs DMSO), 5 days (fraction); higher = more cells survive
[1] = compound: COc1cc2nc(N3CCCN(C)CC3)nc(NC3CCN(Cc4ccccc4)CC3)c2cc1OC + CCNC(=O)c1noc(-c2cc(C(C)C)c(O)cc2O)c1-c1ccc(CN2CCOCC2)cc1 [Luminespib] (partner 0.01 µM)
Method in brief: (§1)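 Medians of duplicate plates are given as relative viability. That measure is the nuclei count in treated wells divided by the count in vehicle wells. Counts were taken on 4× images of lung cancer cell lines in 1536-well plates, 5 days after pin-tool dosing the day after seeding with one drug alone or a fixed anchor-drug dose plus five library-drug doses (not always all listed) in √10 steps.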

[2] = compound: COc1cc2nc(N3CCCN(C)CC3)nc(NC3CCN(Cc4ccccc4)CC3)c2cc1OC + O=C(c1cc(Cc2n[nH]c(=O)c3ccccc23)ccc1F)N1CCN(C(=O)C2CC2)CC1 [Olaparib] (partner 8 µM)
Method in brief: as §1

AZD6482 + Pictilisib = compound: Cc1cc([C@@H](C)Nc2ccccc2C(=O)O)c2nc(N3CCOCC3)cc(=O)n2c1 [AZD6482] + CS(=O)(=O)N1CCN(Cc2cc3nc(-c4cccc5[nH]ncc45)nc(N4CCOCC4)c3s2)CC1 [Pictilisib] (partner 1 µM)
Method in brief: as §1

AZD6482 + AZD7762 = compound: Cc1cc([C@@H](C)Nc2ccccc2C(=O)O)c2nc(N3CCOCC3)cc(=O)n2c1 [AZD6482] + NC(=O)Nc1cc(-c2cccc(F)c2)sc1C(=O)N[C@H]1CCCNC1 [AZD7762] (partner 0.2 µM)
Method in brief: as §1

Cell Line | relative viability ([1]; first compound 0.2 µM) | relative viability ([1]; first compound 0.6325 µM) | relative viability ([1]; first compound 2 µM) | relative viability ([1]; first compound 6.325 µM) | relative viability ([2]; first compound 0.2 µM) | relative viability ([2]; first compound 0.6325 µM) | relative viability ([2]; first compound 2 µM) | relative viability ([2]; first compound 6.325 µM) | relative viability (AZD6482 + Pictilisib; first compound 0.08 µM) | relative viability (AZD6482 + Pictilisib; first compound 0.253 µM) | relative viability (AZD6482 + Pictilisib; first compound 0.8 µM) | relative viability (AZD6482 + Pictilisib; first compound 2.53 µM) | relative viability (AZD6482 + Pictilisib; first compound 8 µM) | relative viability (AZD6482 + AZD7762; first compound 0.08 µM) | relative viability (AZD6482 + AZD7762; first compound 0.253 µM) | relative viability (AZD6482 + AZD7762; first compound 0.8 µM) | relative viability (AZD6482 + AZD7762; first compound 2.53 µM) | relative viability (AZD6482 + AZD7762; first compound 8 µM)
NCI-H1755 | 0.44 | 0.536 | 0.406 | 0.478 | 0.805 | 0.832 | 0.85 | 0.831 | 0.274 | 0.317 | 0.372 | 0.213 | 0.43 | 0.463 | 0.417 | 0.453 | 0.344 | 0.311
HCC-78 | – | – | – | – | 0.944 | 0.66 | 0.787 | 0.831 | 0.218 | 0.186 | 0.184 | 0.182 | 0.214 | 0.671 | 0.388 | 0.57 | 0.327 | 0.409
IA-LM | – | – | – | – | 0.682 | 0.75 | 0.831 | 0.756 | 0.342 | 0.247 | 0.338 | – | 0.366 | – | – | – | – | –
NCI-H322M | 0.766 | 0.943 | 0.799 | 0.832 | 0.763 | 0.782 | 0.771 | 0.688 | 0.485 | 0.399 | 0.475 | 0.353 | 0.498 | 0.647 | 0.623 | 0.587 | 0.421 | 0.405
NCI-H3122 | 0.0795 | 0.0919 | 0.0888 | 0.0791 | 0.644 | 0.616 | 0.634 | 0.629 | 0.644 | 0.572 | 0.642 | 0.407 | 0.636 | 0.956 | 0.987 | 1.05 | 0.696 | 0.777
COR-L23 | 0.752 | 0.731 | 0.761 | 0.614 | 0.348 | 0.38 | 0.414 | 0.339 | 0.424 | 0.642 | 0.765 | 0.534 | 0.748 | – | – | – | – | –
NCI-H2087 | 0.188 | 0.162 | 0.364 | 0.136 | 0.633 | 0.615 | 0.706 | 0.594 | 0.758 | 0.723 | 0.91 | 0.611 | 0.889 | 1.35 | 1.35 | 1.46 | 0.887 | 1.09
LC-2-ad | 0.961 | 0.973 | 1.21 | 1.06 | 0.778 | 0.728 | 0.72 | 0.701 | 0.36 | 0.426 | 0.504 | 0.236 | 0.567 | 0.842 | 0.774 | 0.821 | 0.662 | 0.593
NCI-H2023 | 0.818 | 0.646 | 0.637 | 0.134 | 0.424 | 0.476 | 0.48 | 0.177 | 0.194 | 0.227 | 0.233 | 0.132 | 0.24 | – | – | – | – | –
COR-L 105 | 0.948 | 0.899 | 1.02 | 0.469 | 0.632 | 0.626 | 0.624 | 0.372 | 0.362 | 0.388 | 0.428 | 0.265 | 0.309 | – | – | – | – | –
NCI-H520 | 0.321 | 0.227 | 0.27 | 0.214 | 0.332 | 0.321 | 0.324 | 0.144 | 0.254 | 0.197 | 0.27 | – | 0.316 | – | – | – | – | –
SK-LU-1 | 0.184 | 0.213 | 0.197 | 0.178 | 0.45 | 0.384 | 0.564 | 0.366 | – | 0.535 | 0.622 | 0.461 | 0.448 | – | – | – | – | –
NCI-H2342 | 0.689 | 0.673 | 0.677 | 0.75 | 0.482 | 0.349 | 0.46 | 0.459 | – | – | – | – | – | 0.532 | 0.352 | 0.567 | 0.337 | 0.374
NCI-H1299 | – | – | – | – | 0.951 | 0.909 | 0.997 | 0.928 | 0.615 | 0.684 | 0.742 | 0.394 | 0.678 | – | – | – | – | –
NCI-H1650 | 0.181 | 0.19 | 0.197 | 0.174 | 0.773 | 0.787 | 0.886 | 0.648 | 0.55 | – | 0.664 | 0.398 | 0.843 | – | – | – | – | –
NCI-H2009 | 1.05 | 1.08 | 1.06 | 0.937 | 0.703 | 0.706 | 0.691 | 0.631 | 0.71 | 0.765 | 0.871 | 0.516 | 0.743 | – | – | – | – | –
SW 900 | 0.143 | 0.188 | 0.18 | 0.156 | 0.675 | 0.926 | 0.705 | 0.677 | – | – | – | – | – | 0.402 | 0.512 | 0.445 | 0.497 | 0.501
SK-MES-1 | 0.836 | 0.702 | 0.889 | 0.129 | 0.66 | 0.669 | 0.648 | 0.0414 | 0.285 | 0.34 | 0.33 | 0.202 | 0.35 | – | – | – | – | –
NCI-H1648 | – | – | – | – | – | 0.713 | – | 1.01 | – | – | – | – | – | 0.708 | 0.674 | 0.872 | – | 0.6
NCI-H522 | 1.03 | 1.23 | 1.32 | 1.12 | 0.556 | 0.788 | 0.58 | 0.554 | – | – | – | – | – | 0.764 | 0.73 | 0.803 | 0.762 | 0.664
HCC-366 | – | – | – | – | 0.451 | 0.304 | 0.376 | 0.294 | 0.115 | 0.106 | 0.214 | 0.127 | 0.129 | 0.23 | 0.243 | 0.253 | 0.179 | 0.25
A549 | – | – | – | – | 0.309 | 0.374 | 0.206 | 0.368 | 0.522 | 0.472 | 0.523 | 0.264 | 0.386 | – | – | – | – | –
NCI-H661 | 0.903 | 0.894 | 0.911 | 0.957 | 0.731 | 0.713 | 0.822 | 0.782 | 0.326 | 0.353 | 0.484 | – | 0.356 | – | – | – | – | –
NCI-H1563 | 0.544 | 0.515 | 0.506 | 0.507 | – | – | – | – | 0.617 | 0.575 | 0.646 | 0.677 | 0.673 | – | – | – | – | –
